# From publication PMC12040169 (PLOS Biology, 2025)
# Assay: in vitro
# Details: human, hela cells, % viability
row,SMILES,"viability at 28.5 h, 10 µM [%]"
1,Cc1ccc(-c2nn(-c3cc(N4CCN(CCO)CC4)ccc3[N+](=O)[O-])c(=O)c3ccccc23)cc1C [CBK263713],82.6
2,COC(=O)c1cc(Br)ccc1NC(=O)COc1ccccc1C [CBK263715],89.4
3,CC1CCN(S(=O)(=O)c2cc(S(=O)(=O)N3CCC(C)CC3)c3cccc4c3c2NC4=O)CC1 [CBK263716],91.2
4,O=C(Nc1cccc(C(=O)O)c1)/C(=C\c1ccc2c(c1)OCO2)NC(=O)c1ccc(Br)o1 [CBK263720],99
5,O=C(NCCCNc1ccc(C(F)(F)F)cc1[N+](=O)[O-])c1ccc(Cl)cc1 [CBK263721],99
6,O=C(Nc1ccc(C(=O)O)cc1)/C(=C\c1ccco1)NC(=O)c1ccccc1Cl [CBK263726],113
7,CN(C)CCNc1c2c(nc3ccccc13)CCC2 [CBK263732C],98.1
8,COCCN(CCOC)Cc1c(O)ccc2c3c(c(=O)oc12)CCC3 [CBK263733],75.4
9,COc1ccc(/C=N/NC(=O)c2cc[nH]n2)cc1CSc1nc2ccccc2s1 [CBK263734],103
10,N/C(=N\OC(=O)COc1ccc2ccccc2c1)c1ccncc1 [CBK263737],89.1
11,NC(=O)c1ccc(NC(=O)COc2ccc3ccccc3c2)cc1 [CBK263738],101
12,CC(C)C12CN3CC(C(C)C)(CN(C1)C3c1c[nH]c3ccccc13)C2=O (stereo not shown) [CBK263740],96.1
13,CS(=O)(=O)NCCCNc1ccc(C(F)(F)F)cc1[N+](=O)[O-] [CBK263741],73.1
14,O=C(/C=C/c1ccccc1)NC(=S)Nc1cccc(-c2nc3ncccc3o2)c1 [CBK263742],103
15,Cc1ccccc1Nc1nnc(-c2ccc(C(=O)NCCO)cc2)c2ccccc12 [CBK263743],86.4
16,Cc1cc(C)c(OCCOCCN2CCN(C)CC2)c(Cl)c1 [CBK263744G],98.6
17,Cn1cc(/C=C(\C(=O)O)C(C(=O)O)=C2C3CC4CC(C3)CC2C4)c2ccccc21 [CBK263749],96.5
18,O=C(Nc1ccc2ccccc2c1)c1ccccc1N(Cc1ccccc1)S(=O)(=O)c1ccccc1 [CBK263751],91.5
19,O=C(Nc1cccc2nsnc12)c1ccc(-c2ccc(Br)cc2)o1 [CBK263752],95.9
20,CC(=O)C1=C(O)C(=O)N(CCCO)C1c1cccc([N+](=O)[O-])c1 (stereo not shown) [CBK263753],92.6
21,NNC(=O)CN(CCc1ccccc1)S(=O)(=O)c1ccc(Cl)cc1 [CBK263754],86.2
22,CCOC(=O)C1(C)C=C(Nc2cccc(C)c2)C(=O)N1c1ccccc1 (stereo not shown) [CBK263757],96.8
23,NS(=O)(=O)c1ccc(N2C(=O)C(O)=C(C(=O)c3ccc(Cl)cc3)C2c2ccc([N+](=O)[O-])cc2)cc1 (stereo not shown) [CBK263758],97.2
24,O=C(Nc1cccc2ccccc12)c1ccc(CSCc2ccccc2)cc1 [CBK263759],105
25,O=C(O)c1ccc(N2C(=O)C(O)=C(C(=O)c3ccccc3)C2c2cccc([N+](=O)[O-])c2)cc1 (stereo not shown) [CBK263760],92.5
26,COc1ccc(C2C(C(C)=O)=C(O)C(=O)N2CCC(=O)O)cc1 (stereo not shown) [CBK263763],97.3
27,CCOc1ccc(N(CC(=O)O)S(=O)(=O)c2ccc(SC)cc2)cc1 [CBK263764],103

row,SMILES,"viability at 28.5 h, 10 µM [%]"
1,COc1ccc(-n2nc3cc(C)c(NC(=O)c4ccc(-c5ccc([N+](=O)[O-])cc5OC)o4)cc3n2)cc1 [CBK263766],99.3
2,Cc1ccc(S(=O)(=O)N(CC(=O)O)c2ccc(Cl)cc2)cc1 [CBK263767],106
3,CN(C)S(=O)(=O)N1CCC(Cc2ccccc2)CC1 [CBK263768],98.2
4,Cc1ccc(C(C)C)c(OCC(=O)Nc2ccc(F)c([N+](=O)[O-])c2)c1 [CBK263771],91.7
5,CC(SCc1ccccc1)C(=O)NC(C)c1ccccc1 (stereo not shown) [CBK263772],103
6,Cc1cc(C)cc(N(CC(=O)O)S(C)(=O)=O)c1 [CBK263775],111
7,O=C(CN(c1ccc(Cl)cc1)S(=O)(=O)c1ccccc1)Nc1ccc2ccccc2c1 [CBK263776],112
8,O=C(CN(c1ccccc1)S(=O)(=O)c1ccccc1[N+](=O)[O-])Nc1ccccc1 [CBK263777],76.3
9,Cc1ccc(S(=O)(=O)N(CC(=O)O)c2ccc(C)c(C)c2)cc1 [CBK263778],89.6
10,O=C(COc1ccc2ccccc2c1)Nc1cc([N+](=O)[O-])ccc1F [CBK263780],92.8
11,CC(NC(=O)CN(c1ccc(Cl)c(Cl)c1)S(=O)(=O)c1ccccc1)c1ccccc1 (stereo not shown) [CBK263781],92.8
12,O=C(O)CN(c1ccc([N+](=O)[O-])cc1)S(=O)(=O)c1ccccc1 [CBK263782],92.7
13,O=C(COc1cc(Cl)c(Cl)cc1Cl)N1CCN(c2ccc([N+](=O)[O-])cc2)CC1 [CBK263783],97.1
14,Cc1ccc(S(=O)(=O)NCCNc2ccc(Cl)cc2[N+](=O)[O-])cc1 [CBK263784],104
15,COc1ccc(NC(=O)c2ccc(CN3CCOCC3)cc2)c(OC)c1 [CBK263790],91.4
16,Cc1cc(/C=C(/C#N)c2nc3ccccc3[nH]2)c(C)n1-c1ccc(N2CCOCC2)cc1 [CBK263792],94
17,Cc1ccc(N(Cc2ccc(C(=O)N(C)Cc3ccccc3)cc2)S(C)(=O)=O)cc1C [CBK263795],81.5
18,CC(=O)C1=C(O)C(=O)N(CCCC(=O)O)C1c1cccc([N+](=O)[O-])c1 (stereo not shown) [CBK263801],103
19,O=C(COc1ccc([N+](=O)[O-])cc1)Nc1cccc2nsnc12 [CBK263808],94.8
20,COc1ccc(C2=C(Nc3ccc(C(=O)NCc4cccnc4)cc3)c3ccccc3C2=O)cc1 [CBK263809],89.1
21,COc1cccc(NC(=O)CSc2ccc(Cl)cc2)c1 [CBK263811],85.6
22,COc1cc(/C=N/n2cnnc2)ccc1OS(=O)(=O)c1ccccc1[N+](=O)[O-] [CBK263814],89.3
23,Cc1cc(/C=N/NC(=O)C(=O)NCc2ccccn2)c(C)n1-c1cccc(Br)c1 [CBK263815],93.2
24,CC(NS(=O)(=O)N(C)C)c1ccccc1 (stereo not shown) [CBK263819],96.6
25,O=C(CCN1CCOCC1)Nc1ccc(Cl)cc1 [CBK263820],98.8
26,CCN(CC)Cc1c(O)ccc2cc(-c3nc4ccccc4[nH]3)c(=O)oc12 [CBK263824],102
27,Cc1cccn2c(=O)c(/C=C3\SC(=S)N(CC4CCCO4)C3=O)c(NCCCn3ccnc3)nc12 (stereo not shown) [CBK263825],119

row,SMILES,"viability at 28.5 h, 10 µM [%]"
1,CCOC(=O)c1c(-c2ccccc2)oc2ccc(OCC(=O)NN)cc12 [CBK263826],91.8
2,CC(=O)Oc1ccc(-c2cccc(C(=O)NCC(=O)O)c2)cc1 [CBK263828],86.9
3,CC(=O)Oc1ccc(-c2cccc(C(=O)NCCO)c2)cc1 [CBK263829],105
4,Cc1cccn2c(=O)c(/C=C3\SC(=S)N(Cc4ccccc4)C3=O)c(NCCCn3ccnc3)nc12 [CBK263833],102
5,COC(=O)c1c(NC(=O)CC2SCC(C(=O)OC)NC2=O)sc2c1CCCC2 (stereo not shown) [CBK263834],94.5
6,O=C(c1ccc(S(=O)(=O)N2CCCCCC2)cc1)N1CCC(CN2C(=O)c3cccc4cccc(c34)C2=O)CC1 [CBK263835],98.1
7,Cc1cccn2c(=O)c(/C=C3\SC(=S)N(C(C)c4ccccc4)C3=O)c(NCCCn3ccnc3)nc12 (stereo not shown) [CBK263836],92.9
8,Cc1nnc2nc(-c3cccc(Cl)c3Cl)[nH]n12 [CBK263845],94.2
9,N/C(=N/OC(=O)c1ccc2nsnc2c1)c1ncon1 [CBK263847],105
10,CN(C1=NS(=O)(=O)c2ccccc21)c1ccc(OC(=O)C2CC(=O)N(c3ccccc3)C2)cc1 (stereo not shown) [CBK263849],87
11,Cc1ccc(CSc2nnc(-c3ccc(NC(=O)/C=C/c4ccccc4)cc3)n2C)cc1 [CBK263850],90.4
12,Cc1ccc(C(=O)C(NC(=O)c2ccco2)Nc2cccc3ccccc23)cc1 (stereo not shown) [CBK263856],86.3
13,N=C1NS(=O)(=O)NC1c1ccc(Cl)cc1 (stereo not shown) [CBK263858],88.4
14,CN1C(=O)C(CC(=O)Nc2ccc(F)cc2)N(CCc2ccccc2)C1=S (stereo not shown) [CBK263861],118
15,O=C(O)c1cccc(-c2ccc(/C=N/NC(=O)c3sc4ccccc4c3Cl)o2)c1 [CBK263863],91
16,C(=N\n1cnnc1)/c1ccccc1OCc1cccc2ccccc12 [CBK263864],94.6
17,CCOC(=O)C1=C(C)NC(=O)NC1c1ccc(-c2ccccc2F)o1 (stereo not shown) [CBK263867],95.7
18,O=C(CC1C(=O)N(Cc2ccccc2)C(=S)N1Cc1ccccc1)Nc1ccccc1 (stereo not shown) [CBK263871],97.3
19,O=C(O)c1cc(NS(=O)(=O)c2ccc(N3CCCCC3)c([N+](=O)[O-])c2)cc(C(=O)O)c1 [CBK263876],101
20,N/C(=N\C(=O)CN1C(=O)C2CCCCC2C1=O)Nc1nc2ccccc2s1 (stereo not shown) [CBK263877],92.4
21,COc1ccccc1NCC(=O)n1nc(C)cc1C [CBK263879],97.8
22,O=C(O)COC(=O)C1C(c2ccccc2)C(C(=O)O)C1c1ccccc1 (stereo not shown) [CBK263881],85.9
23,Cc1cc(/C=C2/NC(=S)NC2=O)c(C)n1-c1ccc(Sc2ccc([N+](=O)[O-])cc2)cc1 [CBK263883],109
24,Cc1ccc(NC(=O)CCC(=O)N/N=C/c2ccco2)c(C)c1 [CBK263885],96.4
25,O=C1c2ccccc2C(=O)N1CSc1nnc2c3ccccc3n(CCc3ccccc3)c2n1 [CBK263891],97.7
26,C=CCn1c2ccccc2c2nnc(SCC(=O)Nc3c(C)n(C)n(-c4ccccc4)c3=O)nc21 [CBK263892],87.6

# Same assay, conditions: human, hela cells, % viability, bulk resorufin, single well
row,SMILES,"viability at 28.5 h, 10 µM [%]"
1,O=C(COc1ccc(C=C2C(=O)NC(=O)NC2=O)cc1)NCc1ccccc1 [CBK263736],93.3
2,O=C1NC(=O)N(c2ccc(F)cc2)C(=O)/C1=C/c1ccccc1OCc1ccc([N+](=O)[O-])cc1 [CBK263846],93.5
